# Like-named read-outs stand apart in the source and are kept apart here.
# Tests used:
# C. albicans = test system: C. albicans; design: method as in PMID 25412038; conditions: cited from earlier work
# MTT cell viability assay = assay type: cell-based; conditions: human, HaCaT cells (immortal keratinocytes), HaCaT normal cell line, read-out: Cytotoxic activity IC50 (converted)
# Method: (§1) All the cell lines were purchased from the American Type Culture Collection (ATCC, Rockville, MD, USA) and cultured in strictly defined conditions according to the recommended ATCC protocol. The PC3 cells were cultured in RPMI 1640 (Roswell Park Memorial Institute, Biowest SAS, Nuaillé, France), while the MDA-MB-231 and HaCaT cells were maintained in DMEM (Dulbecco’s Modified Eagle’s Medium, Biowest SAS, Nuaillé, France) supplemented with 1% streptomycin and penicillin and in 10% heat-inactivated fetal bovine serum (FBS, Gibco BRL San Francisco, CA, USA) with 1% streptomycin and penicillin. The cells were incubated in a 37 °C/5% CO2 humidified incubator. They were cultured until 80–90% confluence was achieved. Then, they were harvested by treatment with 0.25% trypsin-0.02% EDTA (Gibco BRL, San Francisco, CA, USA) and used in the experiments. Untreated cells were used as a control. […] After 24 h of incubation, the culture medium was replaced with a fresh medium. […] Then, the medium was aspirated and formed formazan crystals were solubilized by adding isopropanol-DMSO mixture (1:1 vol). The intensity of the dissolved crystals was measured using a UVM 340 reader (ASYS Hitech GmbH, Eugendorf, Austria) at a wavelength of 570 nm. Cell viability was estimated by the percentage of MTT reduction in cells to which the tested compounds were added, compared to the control sample, where only the medium was added. The experiments were repeated three times. The IC50 was calculated using GraphPad Prism 9.0.0 (GraphPad Software).
# [1] = test system: Staphylococcus aureus ATCC 6538; assay: Broth microdilution MIC/MBC, antibacterial; assay type: cell-based; conditions: ATCC6538
# Method: (§2) The minimal inhibitory concentration (MIC) was determined with the microdilution technique using 96-well polystyrene microplates (Medlab, Poland), as indicated by the European Committee on Antimicrobial Susceptibility Testing (EUCAST) guidelines. In this process, stock solutions of each tested Schiff base dissolved in dimethylsulphoxide (DMSO, Stanlab, Poland) were used at a concentration of 50 mg/mL. Before in vitro antibacterial activity detection, the basic concentration of 1000 µg/mL of each compound was prepared with Mueller–Hinton broth medium (MHB, BioMaxima, Lublin, Poland). The experiment was prepared using Mueller–Hinton broth medium in 96-well microplates. A series of two-fold dilutions of the tested compounds in the concentration range from 0.49 to 1000 μg/mL was made in culture broth medium. Then, 2 μL of bacterial inoculum with a density of 0.5 McFarland standard was added to each well. Each well was filled with a total volume of 100 μL. Then, the microtiter plates were incubated for 18 ± 2 h at 35 °C. After the incubation, the results were spectrophotometrically determined in Biotek ELx800 (Biokom, Janki, Poland) at 600 nm (OD600). The lowest concentration of the tested compounds with the absence of bacterial growth was determined as an MIC. Three replicates for each strain and compound were performed.
# (§3) After incubation, 5 μL of the broth media cultured with bacteria or fungi were removed from each well of the plates used in the MIC experiments. Next, they were culturd onto the surface of the MHA medium (BioMaxima, Lublin, Poland) plate for bacteria or MHA +2% glucose plate for yeasts. The inoculated plates were incubated in the conditions mentioned above. After incubation, a visual reading of MBC or MFC values was made. […] Three replicates for each strain and compound were performed.
# [2] = test system: Pseudomonas aeruginosa ATCC 27853; assay: Broth microdilution MIC/MBC, antibacterial; assay type: cell-based; conditions: ATCC27853
# Method: as §2, §3
# [3] = test system: Escherichia coli ATCC 25922; assay: Broth microdilution MIC/MBC, antibacterial; assay type: cell-based; conditions: ATCC25922, Escherichia coli ATCC 25922
# Method: as §2, §3
# [4] = test system: Micrococcus luteus ATCC 10240; assay: Broth microdilution MIC/MBC, antibacterial; assay type: cell-based; conditions: ATCC10240
# Method: as §2, §3
# [5] = test system: Klebsiella pneumoniae ATCC 13883; assay: Broth microdilution MIC/MBC, antibacterial; assay type: cell-based; conditions: ATCC13883, Klebsiella pneumoniae ATCC 13883
# Method: as §2, §3
# [6] = test system: Staphylococcus epidermidis ATCC 12228; assay: Broth microdilution MIC/MBC, antibacterial; assay type: cell-based; conditions: ATCC12228
# Method: as §2, §3
# [7] = test system: Bacillus subtilis ATCC 6633; assay: Broth microdilution MIC/MBC, antibacterial; assay type: cell-based; conditions: ATCC6633
# Method: as §2, §3
# [8] = test system: Candida tropicalis ATCC 1369; assay: Broth microdilution MIC/MFC, antifungal; assay type: cell-based; conditions: ATCC1369
# Method: (§4) To determine the antifungal activity of the newly synthesized Schiff bases against the reference strains of Candida spp., the broth microdilution method was used according to the EUCAST [52] and Clinical and Laboratory Standards Institute (CLSI) guidelines with some modifications to the medium. Before in vitro antifungal activity detection, the basic concentration of 1000 µg/mL of each compound was prepared with Mueller–Hinton broth (BioMaxima, Lublin, Poland) supplemented with 2% glucose (MHB+2% glucose). […] The final concentrations of the Schiff bases ranged from […] to 1000 µg/mL. All the reference strains of Candida spp. used were first subcultured to the Mueller–Hinton agar medium (BioMaxima, Lublin, Poland) with 2% glucose (MHA +2% glucose) at 37 °C for 24 h. Next, 2 µL of appropriate fungal suspensions was added to each well containing 100 µL of MHB + 2% glucose and the various concentrations of the tested Schiff bases.
# as §3
# [9] = test system: Candida lusitaniae ATCC 3449; assay: Broth microdilution MIC/MFC, antifungal; assay type: cell-based; conditions: Clavispora lusitaniae, ATCC3449
# Method: as §4, §3
# [10] = test system: Candida krusei ATCC 14243; assay: Broth microdilution MIC/MFC, antifungal; assay type: cell-based; conditions: Pichia kudriavzevii, ATCC14243
# Method: as §4, §3
# Candida auris CDC B11903 = assay: Broth microdilution MIC/MFC, antifungal; assay type: cell-based; conditions: Candidozyma auris, CDCB11903
# Method: as §4, §3
# [11] = test system: Candida glabrata ATCC 90030; assay: Broth microdilution MIC/MFC, antifungal; assay type: cell-based; conditions: Nakaseomyces glabratus, ATCC90030
# Method: as §4, §3
# [12] = test system: Candida glabrata ATCC 15126; assay: Broth microdilution MIC/MFC, antifungal; assay type: cell-based; conditions: Nakaseomyces glabratus, ATCC15126
# Method: as §4, §3
# [13] = test system: Candida albicans ATCC 10231; assay: Broth microdilution MIC/MFC, antifungal; assay type: cell-based; conditions: for MIC: ATCC10231; for MFC: ATCC10231, read-out: MFC
# Method: as §4, §3
# [14] = test system: tested strains of bacteria; design: method as in PMID 25412038; conditions: cited from earlier work
# MDA-MB-231 = assay: MTT cell viability assay; assay type: cell-based, human; conditions: Homo sapiens, MDA-MB-231, MTT, read-out: Cytotoxic activity IC50
# Method: as §1
# PC3 = assay: MTT cell viability assay; assay type: cell-based, human; conditions: Homo sapiens, PC-3, PC3, MTT, read-out: Cytotoxic activity IC50
# Method: as §1
# [15] = test system: yeast reference strains (Candida spp.); assay: Positive control antifungal, broth microdilution MIC; assay type: cell-based; conditions: range over yeast reference strains
# Method: (§5) The reference antibiotics used during our studies for the selected species of reference bacteria were ciprofloxacin and cefuroxime (Merck KGaA, Darmstadt, Germany). Nystatin (Merck KGaA, Darmstadt, Germany), a known antifungal antibiotic, was used as a positive control for Candida spp.
# All reference antimicrobials against bacteria or fungi were tested in a final concentration range from 0.0049 to 10 µg/mL. The tested Schiff bases were two-fold diluted in the concentration range from 0.49 to 1000 μg/mL in culture broth medium for bacteria or fungi. The medium with DMSO at the final concentrations and without the tested Schiff bases served as a control—no microbial growth inhibition was observed. Three types of control were also carried out simultaneously: (1) serial dilution of the tested Schiff bases in broth medium (without bacteria or fungi) in the same concentration range, (2) a growth control for each strain in broth medium and agar medium for bacteria or fungi, and (3) a negative control of sterile broth or agar medium. […]
# After incubation, 5 μL of the broth media cultured with bacteria or fungi were removed from each well of the plates used in the MIC experiments. […] After incubation, a visual reading of MBC or MFC values was made. […]
# [16] = test system: reference strains of bacteria; assay: Positive control antibiotics, broth microdilution MIC; assay type: cell-based; conditions: range over the bacteria
# Method: as §5
# All reference antimicrobials against bacteria or fungi were tested in a final concentration range from 0.0049 to 10 µg/mL. The tested Schiff bases were two-fold diluted in the concentration range from 0.49 to 1000 μg/mL in culture broth medium for bacteria or fungi. The medium with DMSO at the final concentrations and without the tested Schiff bases served as a control—no microbial growth inhibition was observed. […]
# The minimal inhibitory concentration (MIC) was determined with the microdilution technique using 96-well polystyrene microplates (Medlab, Poland), as indicated by the European Committee on Antimicrobial Susceptibility Testing (EUCAST) guidelines. […] After the incubation, the results were spectrophotometrically determined in Biotek ELx800 (Biokom, Janki, Poland) at 600 nm (OD600). The lowest concentration of the tested compounds with the absence of bacterial growth was determined as an MIC. […]
Compound,melting point [°C],IC50 at 72 h (MTT cell viability assay; 72 h (table footnote)) [µM],IC50 at 72 h (MTT cell viability assay; same value in µg/mL) [µg/mL],MIC [1] [µg/mL],MIC [2] [µg/mL],MIC [3] [µg/mL],MIC [4] [µg/mL],MIC [5] [µg/mL],MIC [6] [µg/mL],MIC [7] [µg/mL],MIC [8] [µg/mL],MIC [9] [µg/mL],MIC [10] [µg/mL],MIC (Candida auris CDC B11903) [µg/mL],MIC [11] [µg/mL],MIC [12] [µg/mL],MIC [13] [µg/mL],IC50 (MDA-MB-231; 72 h (table footnote)) [µM],IC50 (MDA-MB-231; same value in µg/mL) [µg/mL],IC50 (PC3; 72 h (table footnote)) [µM],other results
"Fc1ccc(C=Nn2c(-c3cccc(F)c3)n[nH]c2=S)cc1 [RO7, 4-[(4-fluorobenzylidene)amino]-5-(3-fluorophenyl)-2,4-dihydro-3H-1,2,4-triazole-3-thione]",217 to 218,> 100,> 31.6,500,> 1000,> 1000,250,> 1000,500,> 1000,> 1000,> 1000,> 1000,> 1000,> 1000,> 1000,> 1000,> 100,> 31.6,> 100,MIC (C. albicans): 4 µg/mL; MBC [1]: > 1000 µg/mL; MBC [4]: > 1000 µg/mL; MBC [6]: > 1000 µg/mL; MICs [14]: 16 to 125 µg/mL; IC50 (PC3; same value in µg/mL): > 31.6 µg/mL
C[C@@H]1[C@H](O)[C@@H](C)/C=C/C=C/CC/C=C/C=C/C=C/C=C/C(O[C@H]2O[C@H](C)[C@@H](O)[C@H](N)[C@@H]2O)CC2O[C@](O)(CC(O)C(O)CCC(O)CC(O)CC(O)CC(=O)O[C@H]1C)CC(O)C2C(=O)O (stereo partly shown) [Nystatin],–,–,–,–,–,–,–,–,–,–,–,–,–,–,–,–,–,–,–,–,MIC [15]: 0.24 to 0.48 µg/mL; MBC ([15]; printed MIC = MBC): 0.24 to 0.48 µg/mL
CO/N=C(\C(=O)N[C@@H]1C(=O)N2C(C(=O)O)=C(COC(N)=O)CS[C@H]12)c1ccco1 [cefuroxime],–,–,–,–,–,–,–,–,–,–,–,–,–,–,–,–,–,–,–,–,MIC [16]: 0.24 to 62.5 µg/mL
"Cc1ccccc1C=Nn1c(-c2cccc(F)c2)n[nH]c1=S [RO10, 5-(3-fluorophenyl)-4-[(2-methylbenzylidene)amino]-2,4-dihydro-3H-1,2,4-triazole-3-thione]",223 to 224,> 100,> 31.2,125,> 1000,> 1000,> 1000,> 1000,1000,> 1000,500,> 1000,> 1000,1000,500,500,500,> 100,> 31.2,> 100,MBC [1]: > 1000 µg/mL; MFC [8]: > 1000 µg/mL; MFC [11]: > 1000 µg/mL; MFC [12]: > 1000 µg/mL; MFC [13]: > 1000 µg/mL; IC50 (PC3; same value in µg/mL): > 31.2 µg/mL
"COc1ccccc1C=Nn1c(-c2cccc(F)c2)n[nH]c1=S [RO12, 5-(3-fluorophenyl)-4-[(2-methoxybenzylidene)amino]-2,4-dihydro-3H-1,2,4-triazole-3-thione]",140 to 143,98.1,38.1,> 1000,> 1000,> 1000,> 1000,> 1000,> 1000,> 1000,500,500,1000,500,500,> 1000,125,> 100,> 38.8,> 100,MFC [8]: > 1000 µg/mL; MFC [9]: > 1000 µg/mL; MFC (Candida auris CDC B11903): > 1000 µg/mL; MFC [11]: > 1000 µg/mL; MFC [13]: > 1000 µg/mL; IC50 (PC3; same value in µg/mL): > 38.8 µg/mL
O=C(O)c1cn(C2CC2)c2cc(N3CCNCC3)c(F)cc2c1=O [ciprofloxacin],–,–,–,–,–,–,–,–,–,–,–,–,–,–,–,–,–,–,–,–,MIC [16]: 0.24 to 0.98 µg/mL

# — publication PMC10057893, “Synthesis and Biological Evaluation of New Schiff Bases Derived from 4-Amino-5-(3-fluorophenyl)-1,2,4-triazole-3-thione” (Molecules, 2023)
